The results in this text go back to ChEMBL document CHEMBL3507680, “University of Dundee, Gates Library screen for HepG2 cell viability”.

Molecules are shown by their SMILES.

This series can be described thus: Human HepG2 cell viability assay in 384 well format. Type of series: toxicity, cell-based. The arrangement: dose 125 nL, time 70.5 hour; concentration not given beside the values. To be noted: HepG2 cells, read-out: Inhibition.
For the molecule `CC(=O)N1CCC2(CC1)CNc1ccc(F)cc12`, the cytotoxicity at 70.5 h was -5.28%.

As for `CCC(=O)N1CCC2(COCc3c(C)nc(NCc4ccco4)nc32)C1` (configuration not stated), the cytotoxicity at 70.5 h is -6.57%.

On to `CCOCC1CC2(CCN(C(=O)C3CC=CC3)CC2)CO1` (configuration not stated), for which the cytotoxicity at 70.5 h was -8.99%.

For the molecule `CC(C)Nc1nc2c(c(N(C)C)n1)CCN(C(=O)c1cc[nH]n1)CC2`, the cytotoxicity at 70.5 h was -10.4%.

`Cc1cccc(S(=O)(=O)N2C[C@@H]3OCCN(C(C)C)[C@@H]3C2)c1`: the cytotoxicity at 70.5 h is -6.06%.

Consider `O=C(c1cccnc1)N1CCc2onc(CN3CCCC3)c2C1`, for which the cytotoxicity at 70.5 h was -4.02%.

For `O=C(c1cnccn1)N1CCc2onc(CN3CCCC3)c2C1`, the cytotoxicity at 70.5 h was determined as 1.69%.

On to `CNC(=O)N1CCC2(COCc3c(C)nc(NCc4ccco4)nc32)C1` (configuration not stated), for which the cytotoxicity at 70.5 h was -6.98%.

As to `O=C(c1ccnnc1)N1CCc2onc(CN3CCCC3)c2C1`, the cytotoxicity at 70.5 h was -3.95%.

With `CCN(C(=O)c1nc2c(s1)CCCN2Cc1ccccc1)C(C)C`, the cytotoxicity at 70.5 h is -7.5%.

As for `Cc1nc(N2CCOCC2)nc2c1CCN(c1nccs1)CC2`, the cytotoxicity at 70.5 h was -5.03%.

For the molecule `Cc1ccc(N2CC[C@@H]3O[C@@H](c4ccncn4)C[C@H]3C2)nn1`, the cytotoxicity at 70.5 h was -3.76%.

As for `O=C1[C@H]2CN(c3ncc(F)cn3)C[C@H]2CN1CC1CC1`, the cytotoxicity at 70.5 h came to 5.29%.

Consider `O=S(=O)(C1CC1)N1CCOC2(CCCN(c3ccccc3)C2)C1` (configuration not stated), for which the cytotoxicity at 70.5 h is 7.04%.

As to `Cc1cnc(N2C[C@@H]3CCN(CC4CC4)C(=O)[C@H]3C2)nc1`, the cytotoxicity at 70.5 h is -4.98%.

As to `O=C(c1ccc(F)cc1)N1C[C@@H]2CN(c3ncccn3)C[C@@H]2C1`, the cytotoxicity at 70.5 h was -6.82%.

With `O=S(=O)(C1CC1)N1CCC2(CCCN(c3ncc(F)cn3)C2)C1` (configuration not stated), the cytotoxicity at 70.5 h was -11.2%.

As to `Cn1cnc2c1C(C(=O)N1CCCC1)N(S(C)(=O)=O)CC2` (configuration not stated), the cytotoxicity at 70.5 h was -7.56%.

For the molecule `O=C(CO)N1CC2(CCN(c3ccccc3)C2)C1`, the cytotoxicity at 70.5 h was -6.59%.

Consider `CC(=O)N1CCC2(CC1)c1ncc(-c3ccccc3)n1CCN2C(C)=O`, for which the cytotoxicity at 70.5 h was -5.58%.

Consider `CN(C)c1nc(N2CCCC2)nc2c1CCN(C(=O)c1ccoc1)CC2`, for which the cytotoxicity at 70.5 h stood at 0.617%.

Consider `O=C1NCCO[C@H]2CN(C(=O)CCc3ccc(Cl)cc3)CC[C@@H]12`, for which the cytotoxicity at 70.5 h was -17.3%.

For `O=C1CC[C@@H]2[C@@H](CCN2C(=O)C2CCOCC2)N1CC1CC1`, the cytotoxicity at 70.5 h is -8.18%.

On to `CCOc1ccc(CCC(=O)N2CC[C@H]3C(=O)NCCO[C@H]3C2)cc1`, for which the cytotoxicity at 70.5 h is -10.6%.

As for `O=C1CC(c2cccs2)Cc2[nH]c(=O)ccc21` (configuration not stated), the cytotoxicity at 70.5 h was -7.47%.

With `O=C1CC(c2cccs2)Cc2[nH]c(=O)c(C(=O)NC3CCCC3)cc21` (configuration not stated), the cytotoxicity at 70.5 h was -12.4%.

Take `COc1cc(CCO)c(OC)c2c1OCO2`: the cytotoxicity at 70.5 h is -7.84%.

Regarding `COc1cccc(C2SCC(=O)Nc3ccsc32)c1OC` (configuration not stated), the cytotoxicity at 70.5 h stood at 1.7%.

Take `O=C1CC(c2ccc(C(=O)O)cc2)c2ncn(-c3cccnc3)c2N1` (configuration not stated): the cytotoxicity at 70.5 h was -2.41%.

For `COc1cc(C2SCC(=O)Nc3ccsc32)cc(OC)c1O` (configuration not stated), the cytotoxicity at 70.5 h is -4.76%.

As for `COCCNC(=O)c1cc2c(nc1O)CC(c1cccs1)CC2=O` (configuration not stated), the cytotoxicity at 70.5 h is -12.9%.

Take `CC1CCc2nc(O)c(C(=O)NCc3ccccn3)cc2C1` (configuration not stated): the cytotoxicity at 70.5 h is -5.86%.

Turning to `CC1CCc2nc(O)c(C(=O)NCCc3cccs3)cc2C1` (configuration not stated), the cytotoxicity at 70.5 h was -7.76%.

For `CCOC(=O)N1CCN(c2nc(NCCO)c3ccccc3n2)CC1`, the cytotoxicity at 70.5 h was -9.59%.

As to `CC(=O)c1ccc(-n2ccc3nc(N4CCCC4)ncc3c2=O)cc1`, the cytotoxicity at 70.5 h was -5.08%.

With `O=c1c2cnc(N3CCCC3)nc2ccn1-c1cccc(F)c1`, the cytotoxicity at 70.5 h is -0.217%.

With `CCCN1Cc2cc(Br)ccc2OCC1=O`, the cytotoxicity at 70.5 h came out at 28.2%.

Turning to `CN(c1ncc(C(=O)NCc2ccccc2)c(N)n1)C1CCCCC1`, the cytotoxicity at 70.5 h came out at 18%.

On to `CN(c1ncc(C(=O)Nc2ccccc2)c(N)n1)C1CCCCC1`, for which the cytotoxicity at 70.5 h is -0.75%.

In the case of `COc1cc(OC)c(-n2nnc(C(=O)O)c2C)cc1Cl`, the cytotoxicity at 70.5 h was found to be 1.66%.

As to `CC(C)=CCC/C(C)=C/CC(C)(C)CNCc1ccco1`, the cytotoxicity at 70.5 h was -1%.

As for `COc1ccc(OCC(=O)n2nc(C)c(C)c2C)cc1`, the cytotoxicity at 70.5 h was found to be 3.85%.

As to `CCOc1cc2c(cc1CCC(=O)O)CCC2`, the cytotoxicity at 70.5 h came out at 7.85%.

For the molecule `CCOc1cc2c(cc1C(=O)O)CCC2`, the cytotoxicity at 70.5 h came out at 11.4%.

For the molecule `Cc1cc(NCCO)nc(N2CCCC2)c1C#N`, the cytotoxicity at 70.5 h was determined as 2.8%.

Consider `COCc1nc2nc(O)c3c(n2n1)NC(=O)CC3c1ccccc1Cl` (configuration not stated), for which the cytotoxicity at 70.5 h turned out to be 4.14%.

As to `CC(=O)N1CCc2nc3sc(C(N)=O)c(N)c3c(C(F)(F)F)c2C1`, the cytotoxicity at 70.5 h stood at 6.92%.

For `CC(=O)Nc1nc(-c2ccc(C)c(C)c2)c[nH]1`, the cytotoxicity at 70.5 h is 0.35%.

As for `O=c1[nH]nc(-c2cccs2)c2sc(N3CCOCC3)nc12`, the cytotoxicity at 70.5 h was -4.15%.

Turning to `Cc1nc(C#N)c(N2CCC(c3nc(-c4ccccc4)no3)CC2)o1`, the cytotoxicity at 70.5 h is -4.24%.

For `Oc1nnc(-c2cccs2)c2sc(N3CCCCC3)nc12`, the cytotoxicity at 70.5 h was -1.82%.

In the case of `O=c1[nH]c2nc(N3CCCC3)ncc2c(=O)n1-c1cccc(F)c1`, the cytotoxicity at 70.5 h is -16.9%.

Consider `NC(=O)C1CCN(c2nc3nccc(-c4cccnc4)c3c(=O)[nH]2)CC1`, for which the cytotoxicity at 70.5 h was -2.94%.

Consider `CCN(c1ccc(C(=O)NCCCN2CCCCC2)cc1)S(=O)(=O)CC`, for which the cytotoxicity at 70.5 h was -26.7%.

In the case of `COc1ccccc1C1CC(=O)Nc2nc(N3CCCCC3)sc21` (configuration not stated), the cytotoxicity at 70.5 h is -18.8%.

Consider `O=C(NCc1ccccc1)c1nn(C2CCS(=O)(=O)C2)c2c1CCCC2` (configuration not stated), for which the cytotoxicity at 70.5 h came out at 4.17%.

As to `Nc1nc2c(s1)C(c1c(F)cccc1Cl)CC(=O)N2` (configuration not stated), the cytotoxicity at 70.5 h stood at 1.77%.

`CC(C)OCCCNC(=O)c1c(-n2cnnn2)sc2c1CCCC2`: the cytotoxicity at 70.5 h was -25.4%.

For `Cc1cc(O)c(OCC(=O)/N=c2\[nH]c(C)c(C)s2)cn1`, the cytotoxicity at 70.5 h came out at 5.16%.

Take `Cc1cc(O)c(OCC(=O)/N=c2/[nH]c3c(s2)CCC3)cn1`: the cytotoxicity at 70.5 h was -14.7%.

Consider `COc1ccc(C2SCC(=O)Nc3n[nH]cc32)c(OC)c1OC` (configuration not stated), for which the cytotoxicity at 70.5 h amounted to 5.69%.

For `O=C(c1cc(-n2cnnn2)ccc1Cl)N1CCOCC1`, the cytotoxicity at 70.5 h was -21.4%.

`Cc1cc(O)c(OCC(=O)Nc2nc3c(s2)CCCCC3)cn1`: the cytotoxicity at 70.5 h was -1.73%.

As for `CC(C)CNC(=O)c1c(-n2cnnn2)sc2c1CCCC2`, the cytotoxicity at 70.5 h is -4.4%.

Take `COc1cccc(C2CC(=O)Nc3nc(N4CCCCC4)sc32)c1OC` (configuration not stated): the cytotoxicity at 70.5 h is -6.7%.

As for `O=C1CC(c2ccccc2Br)c2sc(N3CCOCC3)nc2N1` (configuration not stated), the cytotoxicity at 70.5 h came to 2.49%.

Take `CC(C)Oc1ccccc1C1CC(=O)Nc2nc(N3CCOCC3)sc21` (configuration not stated): the cytotoxicity at 70.5 h is -13.2%.

Consider `COc1ccc(OC)c(C2CC(=O)Nc3nc(N4CCOCC4)sc32)c1` (configuration not stated), for which the cytotoxicity at 70.5 h came out at 4.11%.

`COc1ccc(C2CC(=O)Nc3nc(N4CCOCC4)sc32)cc1` (configuration not stated): the cytotoxicity at 70.5 h is -6.38%.

As for `COCCCNC(=O)c1c(-n2cnnn2)sc2c1CCC2`, the cytotoxicity at 70.5 h is -3.39%.

Take `Cn1ncc2c1NC(=O)CSC2c1ccccc1Cl` (configuration not stated): the cytotoxicity at 70.5 h is 14.7%.

As to `CC(C)CCn1[nH]c(CNc2ccc(Cl)cc2)nc1=O`, the cytotoxicity at 70.5 h worked out at 0.442%.

Take `CNc1nc2c(s1)C(c1cccc(Cl)c1Cl)CC(=O)N2` (configuration not stated): the cytotoxicity at 70.5 h is -8.56%.

Turning to `CNc1nc2c(s1)C(c1ccc(Cl)cc1Cl)CC(=O)N2` (configuration not stated), the cytotoxicity at 70.5 h is -5.21%.

For `Cc1ccc(N2N=C(C(N)=O)S(=O)(=O)c3cccnc32)cc1`, the cytotoxicity at 70.5 h is -2.2%.

As for `CCOc1cc(=O)n2c(c1C(=O)OCc1ccc(C)cc1)CCCC2`, the cytotoxicity at 70.5 h stood at 24.4%.

For `CC1CCN(c2ncc3c(n2)CN(c2ccccc2)C3=O)CC1`, the cytotoxicity at 70.5 h was -9.08%.

Consider `CNC(=O)N1CCC2(CC1)CNc1ccc(F)cc12`, for which the cytotoxicity at 70.5 h was -5.44%.

Consider `CCOC(=O)N1CCN(c2nc(NC3CC3)c3ccccc3n2)CC1`, for which the cytotoxicity at 70.5 h worked out at 3.06%.

As for `CNCc1ccc(OCc2ccc3c(c2)OCCO3)cc1`, the cytotoxicity at 70.5 h was -3.57%.

As for `CC(C)(C)NCc1ccc(OCc2ccc3c(c2)OCCO3)cc1`, the cytotoxicity at 70.5 h was determined as 8.79%.

Regarding `CCC1=N[C@@]2(CC[C@@H]3CN(CC(C)C)C[C@@H]32)C(=O)N1`, the cytotoxicity at 70.5 h was -2.78%.

For `c1cnc(N2CCOCC3(CCCN(Cc4cc[nH]n4)C3)C2)nc1` (configuration not stated), the cytotoxicity at 70.5 h is -3%.

`O=C(COC1CCCC1)N1C[C@@H]2CN(Cc3ccoc3)CCO[C@@H]2C1`: the cytotoxicity at 70.5 h is -6.78%.

As to `Cc1nc2c(c(NC(C)C)n1)CCN(C(=O)c1ccno1)CC2`, the cytotoxicity at 70.5 h was -6.32%.

Take `CN1CCO[C@@H]2CN(S(=O)(=O)c3ccccc3F)CC[C@@H]2C1`: the cytotoxicity at 70.5 h was -1.61%.

In the case of `O=C(c1ccccn1)N1CCOC2(COCCN(Cc3cc[nH]n3)C2)C1` (configuration not stated), the cytotoxicity at 70.5 h is -3.84%.

For `CC(C)n1cnc2c1C(C(=O)N1CCOCC1)N(CC1CC1)CC2` (configuration not stated), the cytotoxicity at 70.5 h was -15.8%.

In the case of `Cc1cnc(N2C[C@@H]3CCN(CC(=O)N(C)C)C(=O)[C@H]3C2)nc1`, the cytotoxicity at 70.5 h is 4.34%.

`CCN1C[C@@H]2CN(C(=O)NCc3ccccc3)CCC[C@]2(C(=O)O)C1`: the cytotoxicity at 70.5 h was -15.2%.

Regarding `CCc1ccc(CN2CCc3c(nnn3C)C2COC)cc1` (configuration not stated), the cytotoxicity at 70.5 h is -5.54%.

`CN1C[C@@H]2CN(C(=O)NCc3ccccc3)CCC[C@]2(C(=O)O)C1`: the cytotoxicity at 70.5 h was -1.78%.

With `CC(C)N1C[C@@H]2CN(C(=O)NCc3ccccc3)CCC[C@]2(C(=O)O)C1`, the cytotoxicity at 70.5 h is -4.97%.

In the case of `c1ccc(CN2CCCn3nnc(COc4ccccn4)c3C2)nc1`, the cytotoxicity at 70.5 h was -11.2%.

In the case of `Cc1ccc(N2C[C@@H]3CN(Cc4csc(C)n4)CCO[C@@H]3C2)nn1`, the cytotoxicity at 70.5 h was -2.48%.

Take `CN(C)c1nc(N2CCCC2)nc2c1CCN(C(=O)c1ccco1)CC2`: the cytotoxicity at 70.5 h was -7.2%.

Turning to `CC(C)N1[C@H](CN(C)C)C[C@@H]2CN(c3ncc(F)cn3)CC[C@@H]21`, the cytotoxicity at 70.5 h turned out to be 6.71%.
